Experimental data as given in the NIST ThermoML archive (doi:10.1016/j.jct.2019.03.040).

Assays:
[1] = Liquid; for thermal diffusivity: 101.33 kPa, Laser flash apparatus
[2] = molar heat capacity at constant pressure; conditions: 101.33 kPa, Liquid, Small sample (50 mg) DSC

COC(=O)CCC(C)=O [methyl levulinate]
Conditions | Critical pressure [kPa] | Critical temperature [K] | molar heat capacity at constant pressure [J/K/mol] | thermal diffusivity [m2/s]
[1], 303.15 K | – | – | – | 8e-08
[1], 313.15 K | – | – | – | 7.9e-08
[1], 323.15 K | – | – | – | 7.85e-08
[1], 333.15 K | – | – | – | 7.7e-08
[1], 343.15 K | – | – | – | 7.6e-08
[1], 353.15 K | – | – | – | 7.5e-08
[1], 363.15 K | – | – | – | 7.35e-08
[1], 373.15 K | – | – | – | 7.25e-08
[1], Resistive pulse heating | 3270 | 668 | – | –
[2], 302.68 K | – | – | 258.85 | –
[2], 303.18 K | – | – | 259.11 | –
[2], 303.68 K | – | – | 258.98 | –
[2], 304.18 K | – | – | 259.24 | –
[2], 304.68 K | – | – | 258.98 | –
[2], 305.18 K | – | – | 258.72 | –
[2], 305.68 K | – | – | 259.11 | –
[2], 306.18 K | – | – | 258.85 | –
[2], 306.68 K | – | – | 258.98 | –
[2], 307.18 K | – | – | 259.5 | –
[2], 307.68 K | – | – | 259.63 | –
[2], 308.18 K | – | – | 259.89 | –
[2], 308.68 K | – | – | 260.15 | –
[2], 309.18 K | – | – | 259.89 | –
[2], 309.68 K | – | – | 259.63 | –
[2], 310.18 K | – | – | 259.76 | –
[2], 310.68 K | – | – | 259.37 | –
[2], 311.18 K | – | – | 259.37 | –
[2], 311.68 K | – | – | 259.5 | –
[2], 312.18 K | – | – | 259.76 | –
[2], 312.68 K | – | – | 259.89 | –
[2], 313.18 K | – | – | 259.76 | –
[2], 313.68 K | – | – | 260.15 | –
[2], 314.18 K | – | – | 260.02 | –
[2], 314.68 K | – | – | 260.54 | –
[2], 315.18 K | – | – | 260.15 | –
[2], 315.68 K | – | – | 260.02 | –
[2], 316.18 K | – | – | 259.89 | –
[2], 316.68 K | – | – | 260.8 | –
[2], 317.18 K | – | – | 260.93 | –
[2], 317.68 K | – | – | 260.8 | –
[2], 318.18 K | – | – | 261.06 | –
[2], 318.68 K | – | – | 261.06 | –
[2], 319.18 K | – | – | 261.19 | –
[2], 319.68 K | – | – | 261.06 | –
[2], 320.18 K | – | – | 260.93 | –
[2], 320.68 K | – | – | 261.06 | –
[2], 321.18 K | – | – | 261.19 | –
[2], 321.68 K | – | – | 261.32 | –
[2], 322.18 K | – | – | 261.06 | –
[2], 322.68 K | – | – | 260.8 | –
[2], 323.18 K | – | – | 261.32 | –
[2], 323.68 K | – | – | 261.32 | –
[2], 324.18 K | – | – | 261.45 | –
[2], 324.68 K | – | – | 261.72 | –
[2], 325.18 K | – | – | 261.59 | –
[2], 325.68 K | – | – | 261.85 | –
[2], 326.18 K | – | – | 261.98 | –
[2], 326.68 K | – | – | 262.11 | –
[2], 327.18 K | – | – | 262.11 | –
[2], 327.68 K | – | – | 262.24 | –
[2], 328.18 K | – | – | 262.37 | –
[2], 328.68 K | – | – | 262.63 | –
[2], 329.18 K | – | – | 262.76 | –
[2], 329.68 K | – | – | 262.63 | –
[2], 330.18 K | – | – | 262.63 | –
[2], 330.68 K | – | – | 263.02 | –
[2], 331.18 K | – | – | 263.15 | –
[2], 331.68 K | – | – | 263.15 | –
[2], 332.18 K | – | – | 263.93 | –
[2], 332.68 K | – | – | 263.8 | –
[2], 333.18 K | – | – | 264.06 | –
[2], 333.68 K | – | – | 263.93 | –
[2], 334.18 K | – | – | 264.06 | –
[2], 334.68 K | – | – | 264.45 | –
[2], 335.18 K | – | – | 264.45 | –
